Source: the NIST ThermoML archive (doi:10.1021/je060271a)
Numbers after ± are expanded uncertainties.

Details: 283.15 K, Liquid, Vibrating tube method

CCCC(=O)OCC(COC(=O)CCC)(COC(=O)CCC)COC(=O)CCC [pentaerythritol tetrabutyrate]
Details	mass density [kg/m3]
22400 kPa	1071.8 ± 1.3
22416 kPa	1071.7 ± 1.3
22432 kPa	1071.7 ± 1.3
22448 kPa	1071.7 ± 1.3
22467 kPa	1071.7 ± 1.3
22485 kPa	1071.7 ± 1.3
22500 kPa	1071.8 ± 1.3
22516 kPa	1071.7 ± 1.3
22535 kPa	1071.9 ± 1.3
22551 kPa	1072 ± 1.3
22567 kPa	1071.8 ± 1.3
22586 kPa	1071.9 ± 1.3
22602 kPa	1071.9 ± 1.3
22618 kPa	1071.8 ± 1.3
22634 kPa	1071.9 ± 1.3
22654 kPa	1071.9 ± 1.3
22670 kPa	1072 ± 1.3
22686 kPa	1071.9 ± 1.3
22706 kPa	1071.9 ± 1.3
22722 kPa	1071.9 ± 1.3
22738 kPa	1071.9 ± 1.3
22754 kPa	1071.9 ± 1.3
22774 kPa	1071.9 ± 1.3
22806 kPa	1072 ± 1.3
22894 kPa	1072.1 ± 1.3
22914 kPa	1072 ± 1.3
22930 kPa	1072.1 ± 1.3
22946 kPa	1072 ± 1.3
22964 kPa	1072.1 ± 1.3
22984 kPa	1072 ± 1.3
23000 kPa	1072.1 ± 1.3
23143 kPa	1072.2 ± 1.3
23160 kPa	1072.1 ± 1.3
23177 kPa	1072.1 ± 1.3
23197 kPa	1072.2 ± 1.3
23214 kPa	1072.3 ± 1.3
23231 kPa	1072.3 ± 1.3
23249 kPa	1072.2 ± 1.3
23286 kPa	1072.2 ± 1.3
23303 kPa	1072.3 ± 1.3
23324 kPa	1072.2 ± 1.3
23341 kPa	1072.3 ± 1.3
23358 kPa	1072.2 ± 1.3
23379 kPa	1072.2 ± 1.3
23396 kPa	1072.3 ± 1.3
23413 kPa	1072.3 ± 1.3
23731 kPa	1072.5 ± 1.3
23749 kPa	1072.5 ± 1.3
23882 kPa	1072.6 ± 1.3
23900 kPa	1072.5 ± 1.3
23921 kPa	1072.6 ± 1.3
23939 kPa	1072.5 ± 1.3
23958 kPa	1072.7 ± 1.3
23980 kPa	1072.6 ± 1.3
23998 kPa	1072.5 ± 1.3
24016 kPa	1072.7 ± 1.3
24272 kPa	1072.8 ± 1.3
24291 kPa	1072.8 ± 1.3
24313 kPa	1072.8 ± 1.3
24675 kPa	1073 ± 1.3
24694 kPa	1073 ± 1.3
24718 kPa	1073 ± 1.3
24737 kPa	1073 ± 1.3
24756 kPa	1073 ± 1.3
24780 kPa	1073 ± 1.3
24799 kPa	1073.1 ± 1.3
24819 kPa	1073 ± 1.3
24842 kPa	1073.1 ± 1.3
24862 kPa	1073.1 ± 1.3
24882 kPa	1073.1 ± 1.3
24902 kPa	1073.1 ± 1.3
24926 kPa	1073.1 ± 1.3
24945 kPa	1073.1 ± 1.3
24969 kPa	1073.2 ± 1.3
25008 kPa	1073.3 ± 1.3
25032 kPa	1073.1 ± 1.3
25052 kPa	1073.1 ± 1.3
25072 kPa	1073.2 ± 1.3
25092 kPa	1073.2 ± 1.3
25112 kPa	1073.3 ± 1.3
25136 kPa	1073.2 ± 1.3
25157 kPa	1073.1 ± 1.3
25182 kPa	1073.3 ± 1.3
25201 kPa	1073.3 ± 1.3
25225 kPa	1073.2 ± 1.3
25246 kPa	1073.2 ± 1.3
25266 kPa	1073.3 ± 1.3
25287 kPa	1073.3 ± 1.3
25311 kPa	1073.3 ± 1.3
25332 kPa	1073.3 ± 1.3
25353 kPa	1073.3 ± 1.3
25378 kPa	1073.3 ± 1.3
25399 kPa	1073.4 ± 1.3
25420 kPa	1073.3 ± 1.3
25441 kPa	1073.3 ± 1.3
25465 kPa	1073.5 ± 1.3
25486 kPa	1073.3 ± 1.3
25598 kPa	1073.4 ± 1.3
25620 kPa	1073.5 ± 1.3
25641 kPa	1073.6 ± 1.3
25666 kPa	1073.5 ± 1.3
25688 kPa	1073.6 ± 1.3
25710 kPa	1073.5 ± 1.3
25731 kPa	1073.6 ± 1.3
25757 kPa	1073.5 ± 1.3
25778 kPa	1073.5 ± 1.3
25799 kPa	1073.5 ± 1.3
25820 kPa	1073.5 ± 1.3
25846 kPa	1073.6 ± 1.3
25867 kPa	1073.5 ± 1.3
25889 kPa	1073.7 ± 1.3
25915 kPa	1073.5 ± 1.3
25936 kPa	1073.6 ± 1.4
25958 kPa	1073.7 ± 1.3
25985 kPa	1073.7 ± 1.3
26009 kPa	1073.6 ± 1.3
26031 kPa	1073.7 ± 1.3
26052 kPa	1073.7 ± 1.3
26074 kPa	1073.8 ± 1.3
26101 kPa	1073.8 ± 1.3
26122 kPa	1073.6 ± 1.3
26148 kPa	1073.8 ± 1.3
26170 kPa	1073.8 ± 1.3
26193 kPa	1073.7 ± 1.3
26219 kPa	1073.8 ± 1.3
26241 kPa	1073.8 ± 1.3
26264 kPa	1073.8 ± 1.3
26290 kPa	1073.8 ± 1.3
26313 kPa	1073.8 ± 1.3
26334 kPa	1073.8 ± 1.3
26361 kPa	1073.8 ± 1.3
26384 kPa	1073.9 ± 1.3
26406 kPa	1073.8 ± 1.3
26429 kPa	1073.8 ± 1.3
26456 kPa	1074 ± 1.3
26478 kPa	1073.9 ± 1.3
26501 kPa	1073.8 ± 1.3
26722 kPa	1074 ± 1.3
26740 kPa	1074 ± 1.3
26772 kPa	1074.1 ± 1.3
26796 kPa	1074 ± 1.3
26824 kPa	1074.1 ± 1.3
26848 kPa	1074.1 ± 1.3
26871 kPa	1074.2 ± 1.3
26899 kPa	1074.2 ± 1.3
26923 kPa	1074 ± 1.3
